Experiments:
GD3 ganglioside = test: Anti-GD3 antibody ELISA after vaccination of mice with GD3-KLH conjugate plus QS-21 adjuvants (Example 4); type: in vivo, mice (C57BL/6J, female); details: after 3 weekly vaccinations with GD3-KLH; adjuvant doses 10 and 20 μg; compared with GD3-KLH alone
Protocol: Using similar protocols, the immuno-potentiating properties of the synthetic adjuvants SQS-21-Api and SQS-21-Xyl were evaluated in mice (C57BL/6J, female, six weeks of age). […]
Groups of five mice were immunized with the melanoma antigen GD3 ganglioside conjugated to KLH (GD3-KLH) at a 10 μg antigen dose per vaccination. […] Immunopotentiation was assessed by testing for the presence of antibody against GD3 and KLH by ELISA, and against a tumor cell-line SK-MEL-28, expressing GD3 antigen, by FACS.
The antibody response after vaccination with GD3-KLH conjugate with or without adjuvant was determined with an ELISA assay using either GD3 ganglioside or KLH protein as target. […] After the third vaccination, no IgG antibodies against GD3 were detected; however, after the fourth immunization IgM and IgG antibody titers were induced in most mice. […]

[1] = Toxicity: loss of weight after each injection; type: in vivo, mice (C57BL/6J, female); details: monitored 0 h, 24 h, 48 h, 72 h after each injection; GD3-KLH 10 μg; adjuvant 20 μg; 4-week duration
Protocol: As a measure of toxicity, loss of weight was monitored at 0 h, 24 h, 48 h and 72 h after each injection. […] As the negative control, vaccinations employing GD3-KLH only (no adjuvant) led to no appreciable weight loss after each injection.

[2] = in vivo; cited from earlier work

Row | Compound | IgM antibody response against GD3 (antibody titers) (GD3 ganglioside) | weight loss after each injection [1] | maximum dose [2] [µg]
1 | CC[C@H](C)[C@H](C[C@H](O)CC(=O)O[C@H]1C(C)O[C@@H](OC(=O)[C@]23CCC(C)(C)CC2C2=CCC4C5(C)CC[C@H](O[C@@H]6OC(C(=O)O)[C@@H](O)[C@H](O[C@@H]7OC[C@@H](O)[C@H](O)C7O)C6O[C@@H]6OC(CO)[C@H](O)[C@H](O)C6O)[C@](C)(C=O)[C@@H]5CC[C@]4(C)[C@]2(C)CC3O)C(O[C@@H]2OC(C)[C@H](O[C@@H]3OC[C@@H](O)C(O[C@@H]4OCC(O)(CO)[C@@H]4O)C3O)C(O)C2O)C1O)OC(=O)C[C@@H](O)C[C@H](O[C@@H]1O[C@@H](CO)C(O)C1O)[C@@H](C)CC (some centres unmarked) [SQS-21-Api, QS-21-Api] | significantly higher than the group with GD3-KLH alone | very similar | 
2 | CC[C@H](C)[C@H](C[C@H](O)CC(=O)O[C@H]1C(C)O[C@@H](OC(=O)[C@]23CCC(C)(C)CC2C2=CCC4C5(C)CC[C@H](O[C@@H]6OC(C(=O)O)[C@@H](O)[C@H](O[C@@H]7OC[C@@H](O)[C@H](O)C7O)C6O[C@@H]6OC(CO)[C@H](O)[C@H](O)C6O)[C@](C)(C=O)[C@@H]5CC[C@]4(C)[C@]2(C)CC3O)C(O[C@@H]2OC(C)[C@H](O[C@@H]3OC[C@@H](O)C(O[C@@H]4OC[C@@H](O)C(O)C4O)C3O)C(O)C2O)C1O)OC(=O)C[C@@H](O)C[C@H](O[C@@H]1O[C@@H](CO)C(O)C1O)[C@@H](C)CC (some centres unmarked) [SQS-21-Xyl, QS-21-Xyl] | significantly higher than the group with GD3-KLH alone | very similar | 
3 | QS-21 |  |  | ≤ 50

From patent publication US12227535B2, “Triterpene saponins, methods of synthesis and uses thereof” (SLOAN KETTERING INSTITUTE FOR CANCER RESEARCH, priority 2008, dated 2025)
